The results in this text go back to US20260347372A1, “SMALL MOLECULE INHIBITORS OF KRAS G12D MUTANT” (MERCK SHARP & DOHME LLC, priority 2023, published 2026).

One assay has as its target KRAS G12D (Homo sapiens, UniProt P01116, G12D). The assay can be described thus: SOS-catalyzed nucleotide exchange assay, KRAS G12D (Procedure A). Format: biochemical. To be noted: guanine nucleotide exchange (GNE). Summed up: (§1)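 60 min cpd preinc. w/ RAS–Bodipy-GDP–Tb-SA complex; + hSOS/GTP (3 mM final), RT. G12C 3 nM RAS/40 nM SOS; WT, G12D 1 nM/40 nM; 60 min rxn. G13D 1.25 nM, no SOS, 30 min rxn. HEPES pH 7.5, 10 mM MgCl2. Ratio 520/495, norm. to DMSO/max-inhibitor ctrls.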

The next assay deals with KRAS WT (Homo sapiens, UniProt P01116). The assay can be described thus: SOS-catalyzed nucleotide exchange assay, KRAS WT (Procedure A). The note with it: GNE. Format: biochemical. Summed up: as §1
Sequence of KRAS WT (P01116 with tags, fused parts or gaps isoform P01116-2): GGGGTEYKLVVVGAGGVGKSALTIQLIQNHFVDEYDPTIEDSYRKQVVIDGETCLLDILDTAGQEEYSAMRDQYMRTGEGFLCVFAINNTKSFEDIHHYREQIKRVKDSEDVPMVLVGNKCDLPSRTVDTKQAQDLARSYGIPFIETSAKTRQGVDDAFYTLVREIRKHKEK
Another assay addresses KRAS G12C (Homo sapiens, UniProt P01116, C118S/C51S/C80L/G12C). The assay can be described thus: SOS-catalyzed nucleotide exchange assay, KRAS G12C (Procedure A). Format: biochemical. To be noted: GNE. The gist of the method:
as §1

The target of a further assay is KRAS G12V (Homo sapiens, UniProt P01116, G12V). The assay can be described thus: SOS-catalyzed nucleotide exchange assay, KRAS G12V (Procedure A). Format: biochemical. The note with it: GNE. The gist of the method:
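Biotinylated KRAS G12V was loaded with Bodipy-GDP alongside Terbium-streptavidin to form a TR-FRET complex, which was preincubated with compounds for 60 minutes in 384-well plates. Human SOS protein and unlabeled GTP were then added for 90 minutes, giving final concentrations of 1.25 nM KRAS-G12V, 160 nM SOS and 3 mM GTP. The 520/495 nm emission ratio was read on an Envision.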

The target in another assay is KRAS G13D (Homo sapiens, UniProt P01116, G13D). The assay can be described thus: SOS-catalyzed nucleotide exchange assay, KRAS G13D (Procedure A). Format: biochemical. The note with it: GNE. Summed up: as §1
Sequence of KRAS G13D (P01116 with tags, fused parts or gaps isoform P01116-2 G13D): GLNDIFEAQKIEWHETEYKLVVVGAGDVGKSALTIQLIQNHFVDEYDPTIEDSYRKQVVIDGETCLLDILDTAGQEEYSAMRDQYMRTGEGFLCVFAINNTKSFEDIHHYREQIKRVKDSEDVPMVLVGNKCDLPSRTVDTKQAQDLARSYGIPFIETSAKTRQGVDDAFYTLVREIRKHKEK
Another assay has as its target HRAS (Homo sapiens, UniProt P01112). In words: SOS-catalyzed nucleotide exchange assay, HRAS (Procedure A). Format: biochemical. To be noted: GNE. Summed up: as §1
The target of a further assay is NRAS (Homo sapiens, UniProt P01111). In words: SOS-catalyzed nucleotide exchange assay, NRAS (Procedure A). Format: biochemical. The note with it: GNE. Summed up: as §1
Sequence of NRAS (P01111 with tags, fused parts or gaps): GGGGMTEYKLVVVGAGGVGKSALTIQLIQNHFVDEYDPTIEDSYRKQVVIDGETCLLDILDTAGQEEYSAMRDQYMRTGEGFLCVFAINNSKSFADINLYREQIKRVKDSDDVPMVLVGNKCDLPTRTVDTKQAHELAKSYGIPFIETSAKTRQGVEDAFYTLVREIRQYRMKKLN
The target in the next assay is T1, PANC08.13 cells (Homo sapiens, UniProt P01116, G12D).
T1 construct: p-ERK/total ERK AlphaSureFire read-out
T1 sequence (P01116 1-188 isoform P01116-2 G12D): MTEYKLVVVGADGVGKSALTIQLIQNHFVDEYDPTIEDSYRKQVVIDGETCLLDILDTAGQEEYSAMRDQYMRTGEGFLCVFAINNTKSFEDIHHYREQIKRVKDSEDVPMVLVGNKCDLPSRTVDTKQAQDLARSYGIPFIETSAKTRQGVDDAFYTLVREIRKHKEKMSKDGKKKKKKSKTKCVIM
The assay can be described thus: Cellular phospho-ERK assay, PANC08.13 cells (KRAS G12D). To be noted: 2 hours, read-out: PANCO 813 pERK IC50. Format: cell-based. The procedure:
Procedure for Cellular Phospho-ERK Assay in KRAS Wild Type and Mutant (G12D, G12V) Cell Lines
PANC08.13 cells (ATCC® CRL-2551™), containing homozygous KRAS-G12D activating mutation, were cultured in growth medium made of RPMI1640-GlutaMAX™-I (ThermoFisher Scientific 61870) containing 15% heat inactivated fetal bovine serum (ThermoFisher Scientific 10091148)). AsPC-1 cells (ATCC® CRL-1682™), containing homozygous KRAS-G12D activating mutation, were cultured in T150 flask in growth medium (RPMI medium 1640-GlutaMAX™-I (ThermoFisher Scientific 61870) containing 10% fetal bovine serum (ThermoFisher Scientific 10091148)).
Cells for the assay were harvested in growth medium after TrypLE (ThermoFisher scientific 12604021) digestion and were seeded in a 384-well collagen coated cell culture plate (Corning 356702) at a density of 10,000-15,000 cells/20 μL/well, and incubated at 37° C., 5% CO2 overnight. The compound (with 10 mM stock concentration) dose-response titrations were prepared [30 μM final ERK detection assay concentration and 1:3 dilutions, 10-point dose response] and appropriate amounts (270 nL) of test compounds were dispensed in a 384-well intermediate plate using an Echo 550 liquid handler. 30 μL/well of RPMI medium 1640-GlutaMAX™-I was added to the intermediate plate and the contents of the intermediate plate (10 μL/well) were then transferred to the 384-well collagen coated cell culture plate, which was incubated at 37° C., 5% CO2 for 2 hours. After removal of medium from the collagen coated cell culture plate, cells were lysed in lysis buffer from Alpha SureFire® Ultra™ Multiplex p-ERK and total ERK assay kit (PerkinElmer MPSU-PTERK) containing Halt™ Protease and Phosphatase inhibitor cocktail (ThermoFisher Scientific 78446) at room temperature with constant shaking at 300 rpm for 30 minutes. The cell lysates were then transferred to an OptiPlate-384 plate (PerkinElmer 6005620), and the phosphorylation of ERK (p-ERK) and total ERK levels were detected by Alpha SureFire® Ultra™ Multiplex p-EEK kit and total ERK assay kit (PerkinElmer MPSU-PTERK) following the manufacturer's protocol. Assay plates were read on a EnVision Multimode Plate Reader (PerkinElmer), and the ratio of p-ERK vs. total ERK in each well was used as the final readout. Dose response curves were analyzed using a 4-parameter logistic model to calculate IC50 values using Spotfire software.

pIC50: −log10 of the molar value.

Sequence of HRAS (P01112 with tags, fused parts or gaps): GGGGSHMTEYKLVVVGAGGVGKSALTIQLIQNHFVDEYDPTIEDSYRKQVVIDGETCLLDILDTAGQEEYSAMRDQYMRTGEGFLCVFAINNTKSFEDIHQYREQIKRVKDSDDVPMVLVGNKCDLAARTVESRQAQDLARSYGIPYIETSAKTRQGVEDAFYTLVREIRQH
Sequence of KRAS G12V (P01116 with tags, fused parts or gaps isoform P01116-2 G12V): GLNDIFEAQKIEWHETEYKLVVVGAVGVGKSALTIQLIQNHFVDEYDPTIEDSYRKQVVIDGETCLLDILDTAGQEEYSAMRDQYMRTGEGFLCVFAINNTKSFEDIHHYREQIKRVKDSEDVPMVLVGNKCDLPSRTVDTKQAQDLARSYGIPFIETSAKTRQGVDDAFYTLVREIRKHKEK
Sequence of KRAS G12D (P01116 with tags, fused parts or gaps isoform P01116-2 G12D): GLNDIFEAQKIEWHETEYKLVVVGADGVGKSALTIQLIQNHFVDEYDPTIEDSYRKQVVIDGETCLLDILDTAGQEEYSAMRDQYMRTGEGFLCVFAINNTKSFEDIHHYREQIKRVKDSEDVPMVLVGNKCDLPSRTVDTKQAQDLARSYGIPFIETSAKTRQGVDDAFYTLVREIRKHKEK
Sequence of KRAS G12C (P01116 with tags, fused parts or gaps isoform P01116-2 G12C/C51S/C80L/C118S): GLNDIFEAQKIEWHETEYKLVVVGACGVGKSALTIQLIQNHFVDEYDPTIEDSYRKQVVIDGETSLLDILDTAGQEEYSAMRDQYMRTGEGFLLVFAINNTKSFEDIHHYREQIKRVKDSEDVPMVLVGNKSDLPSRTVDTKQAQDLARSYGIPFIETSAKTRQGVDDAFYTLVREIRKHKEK

One may read the pIC50 as −log10 of the IC50, conventionally taken in molar units. Take `Cc1cc2[nH]ncc2c(-c2nccc3c2sc2nc(OC[C@]4(CO)CC4(F)F)nc(N4C[C@H]5CC[C@@H](C4)N5)c23)c1C(F)(F)F` [Ex-25, ((1R)-1-(((4-((1R,5S)-3,8-diazabicyclo[3.2.1]octan-3-yl)-8-(6-methyl-5-(trifluoromethyl)-1H-indazol-4-yl)pyrido[4′,3′:4,5]thieno[2,3-d]pyrimidin-2-yl)oxy)methyl)-2,2-difluorocyclopropyl)methanol]: the negative-log IC50 (pIC50) against KRAS G12D was 5.99; against KRAS WT, under 4.95; against KRAS G12C, under 4.96; against KRAS G12V it was under 4.95; at KRAS G13D, under 4.96; on HRAS, under 4.96. For the same compound, the negative logarithm of the IC50 (pIC50) against NRAS was under 4.96; at PANC08.13 cells it was 5.54.
Take `C#Cc1c(F)ccc2cc(N)nc(-c3nccc4c5c(N6C[C@H]7CC[C@@H](C6)N7)nc(OC[C@@]67CCCN6C[C@H](F)C7)nc5n(C)c34)c12` [Ex-7, 1-(4-((1R,5S)-3,8-diazabicyclo[3.2.1]octan-3-yl)-2-(((2R,7aS)-2-fluorotetrahydro-1H-pyrrolizin-7a(5H)-yl)methoxy)-9-methyl-9H-pyrido[4′,3′:4,5]pyrrolo[2,3-d]pyrimidin-8-yl)-8-ethynyl-7-fluoroisoquinolin-3-amine]: the pIC50 against KRAS G12D is 7.29; against KRAS WT, under 4.95; at KRAS G12C it was under 4.96; against KRAS G12V it was under 4.95; against KRAS G13D, 5.84; against HRAS, under 4.96. For the same compound, the results for the pIC50 at NRAS and at PANC08.13 cells were under 4.96 and 6.24, respectively.
As for `Cc1cc2[nH]nc(C#N)c2c(-c2nccc3c4c(N5C[C@H]6CC[C@@H](C5)N6)nc(OC[C@@]56CCCN5C[C@H](F)C6)nc4n(C)c23)c1C(F)F` (single isomer, unassigned) [Ex-4], the pIC50 is 6.93 on KRAS G12D; under 4.95 at KRAS WT; under 4.96 against KRAS G12C; under 4.95 against KRAS G12V; 5.40 against KRAS G13D; under 4.96 against HRAS. The figures for the pIC50 against NRAS and at PANC08.13 cells were under 4.96 and 5.43, respectively.
As to `Cc1cc(N)nc(-c2nccc3c4c(N5C[C@H]6CC[C@@H](C5)N6)nc(OC[C@@]56CCCN5C[C@H](F)C6)nc4n(C)c23)c1C(F)(F)F` [Ex-6, 6-(4-((1R,5S)-3,8-diazabicyclo[3.2.1]octan-3-yl)-2-(((2R,7aS)-2-fluorotetrahydro-1H-pyrrolizin-7a(5H)-yl)methoxy)-9-methyl-9H-pyrido[4′,3′:4,5]pyrrolo[2,3-d]pyrimidin-8-yl)-4-methyl-5-(trifluoromethyl)pyridin-2-amine], the pIC50 at KRAS G12D is 6.04; against KRAS WT, under 4.95; on KRAS G12C, under 4.96; at KRAS G12V, under 4.95; against KRAS G13D, under 4.96; at HRAS, under 4.96. Moreover, the results for the pIC50 against NRAS and at PANC08.13 cells were under 4.96 and 5.01, respectively.
Regarding `Cc1cc2[nH]ncc2c(-c2nccc3c2sc2nc(OCC4(CO)CCC4)nc(N4C[C@H]5CC[C@@H](C4)N5)c23)c1C(F)F` [Ex-64, (1-(((4-((1R,5S)-3,8-diazabicyclo[3.2.1]octan-3-yl)-8-(5-(difluoromethyl)-6-methyl-1H-indazol-4-yl)pyrido[4′,3′:4,5]thieno[2,3-d]pyrimidin-2-yl)oxy)methyl)cyclobutyl)methanol], the negative logarithm of the IC50 (pIC50) on KRAS G12D was 5.03; at KRAS WT, under 4.95; on KRAS G12V, under 4.95; on PANC08.13 cells, under 5.00.
For the compound `Cc1cc2[nH]ncc2c(-c2nccc3c2sc2nc(OC[C@]4(CO)CC4(F)F)nc(N4C[C@H]5CC[C@@H](C4)N5)c23)c1OC(F)(F)Cl` [Ex-52, ((1R)-1-(((4-((1R,5S)-3,8-diazabicyclo[3.2.1]octan-3-yl)-8-(5-(chlorodifluoromethoxy)-6-methyl-1H-indazol-4-yl)pyrido[4′,3′:4,5]thieno[2,3-d]pyrimidin-2-yl)oxy)methyl)-2,2-difluorocyclopro-pyl)methanol], the negative-log IC50 (pIC50) on KRAS G12D was 6.14; at KRAS WT it was under 4.95; against KRAS G12V, under 4.95; on PANC08.13 cells it was 5.56.
As to `Cc1cc2[nH]ncc2c(-c2nccc3c2sc2nc(OC[C@]4(CO)CC4(F)F)nc(N4C[C@H]5CC[C@@H](C4)N5)c23)c1OC(F)F` [Ex-51, ((1R)-1-(((4-((1R,5S)-3,8-diazabicyclo[3.2.1]octan-3-yl)-8-(5-(difluoromethoxy)-6-methyl-1H-indazol-4-yl)pyrido[4′,3′:4,5]thieno[2,3-d]pyrimidin-2-yl)oxy)methyl)-2,2-difluorocyclopropyl)methanol], the negative-log IC50 (pIC50) against KRAS G12D was 5.67; against KRAS WT, under 4.95; against KRAS G12V, under 4.95; on PANC08.13 cells it was 5.17.
With `CCn1c2nc(OC[C@@]34CCCN3C[C@H](F)C4)nc(N3C[C@H]4CC[C@@H](C3)N4)c2c2ccnc(-c3c(C(F)(F)F)c(C)cc4[nH]ncc34)c21` [Ex-11, 4-((1R,5S)-3,8-diazabicyclo[3.2.1]octan-3-yl)-9-ethyl-2-(((2R,7aS)-2-fluorotetrahydro-1H-pyrrolizin-7a(5H)-yl)methoxy)-8-(6-methyl-5-(trifluoromethyl)-1H-indazol-4-yl)-9H-pyrido[4′,3′:4,5]pyrrolo[2,3-d]pyrimidine], the negative-log IC50 (pIC50) against KRAS G12D is 6.16; at KRAS WT it was under 4.95; against KRAS G12V, under 4.95; on PANC08.13 cells, 5.61.
On to `Cc1cc2[nH]nc(C#N)c2c(-c2nccc3c2sc2nc(OC[C@@]45CCCN4C[C@H](F)C5)nc(N4C[C@H]5CC[C@@H](C4)N5)c23)c1C(F)F` [Ex-18, 4-(4-((1R,5S)-3,8-diazabicyclo[3.2.1]octan-3-yl)-2-(((2R,7aS)-2-fluorotetrahydro-1H-pyrrolizin-7a(5H)-yl)methoxy)pyrido[4′,3′:4,5]thieno[2,3-d]pyrimidin-8-yl)-5-(difluoromethyl)-6-methyl-1H-indazole-3-carbonitrile], for which the pIC50 against KRAS G12D was 6.91; against KRAS WT, under 4.95; on KRAS G12V, under 4.95; at PANC08.13 cells it was 6.18.
On to `Nc1nc2c(-c3nccc4c3sc3nc(OC[C@@]56CCCN5C[C@H](F)C6)nc(N5C[C@H]6CC[C@@H](C5)N6)c34)ccc(F)c2s1` [Ex-16, 4-(4-((1R,5S)-3,8-diazabicyclo[3.2.1]octan-3-yl)-2-(((2R,7aS)-2-fluorotetrahydro-1H-pyrrolizin-7a(5H)-yl)methoxy)pyrido[4′,3′:4,5]thieno [2,3-d]pyrimidin-8-yl)-7-fluorobenzo[d]thiazol-2-amine], for which the pIC50 is 6.55 at KRAS G12D, under 4.95 against KRAS WT, under 4.95 at KRAS G12V and 5.01 at PANC08.13 cells.
